In US20090029992A1, “SUBSTITUTED PYRAZOLE COMPOUNDS” (priority 2007, published 2009):

Key:
[1] = molecular target: T1, N-terminal GST-tagged recombinant human Flt3, residues 564-end (Homo sapiens, UniProt P36888); assay: Flt3 kinase inhibition assay (33P-ATP filter assay); format: biochemical; conditions: 40 minutes at room temperature
T1 construct: recombinant human Flt3, residues 564-end; GST (N); purchased Upstate USA Inc, 706 Forest Street, Charlottesville, Va
T1 sequence (P36888 564-993 limits assumed): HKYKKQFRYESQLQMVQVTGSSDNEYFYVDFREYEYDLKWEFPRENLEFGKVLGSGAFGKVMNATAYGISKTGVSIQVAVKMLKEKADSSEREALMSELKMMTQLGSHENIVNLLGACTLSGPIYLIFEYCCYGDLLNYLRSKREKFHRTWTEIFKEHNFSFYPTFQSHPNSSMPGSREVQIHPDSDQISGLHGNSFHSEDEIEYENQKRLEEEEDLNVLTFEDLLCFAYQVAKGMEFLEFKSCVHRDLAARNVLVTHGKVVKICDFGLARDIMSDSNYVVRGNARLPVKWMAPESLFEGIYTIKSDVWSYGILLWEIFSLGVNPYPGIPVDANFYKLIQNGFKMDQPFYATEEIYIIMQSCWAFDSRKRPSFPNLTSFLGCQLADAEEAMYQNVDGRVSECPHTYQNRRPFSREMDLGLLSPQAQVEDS
Procedure: (§1) Compounds were assayed for Flt3 kinase inhibitory activity using N-terminal GST-tagged recombinant human Flt3, residues 564-end (Upstate USA Inc, 706 Forest Street, Charlottesville, Va.). Serial dilutions of compound were assayed in a final reaction volume of 25 μL by incubating a solution of the above Flt3 kinase (5-10 mU), 8 mM MOPS (3-(N-morpholino) propanesulfonic acid) pH 7.0, 0.2 mM EDTA (ethylenediamine tetracetic acid), 50 μM amino acid sequence EAIYAAPFAKKK (Upstate USA Inc, 706 Forest Street, Charlottesville, Va.), and 10 mM magnesium acetate and [γ-^33P-ATP] (specific activity of about 500 cpm/μmol, concentration as required). The reaction was initiated by the addition of the magnesium acetate and [γ-^33P-ATP] mixture. After incubation for 40 minutes at room temperature, the reaction was stopped by the addition of 5 μL of a 3% phosphoric acid solution. A 10 μL aliquote of the reaction was then spotted onto a P30 filtermat (PerkinElmer, Wellesley, Mass.) and washed three times for five minutes in 75 mM phosphoric acid and once in methanol prior to drying and scintillation counting. Inhibition of Flt3 activity was determined by comparison to assays that contained no inhibitor.

[2] = molecular target: T2, N-terminal His-tagged human Src (Homo sapiens, UniProt P12931); assay: Src kinase inhibition assay (33P-ATP filter assay); format: biochemical
T2 construct: His (N); purchased Upstate USA Inc, 706 Forest Street, Charlottesville, Va
T2 sequence (P12931 whole entry): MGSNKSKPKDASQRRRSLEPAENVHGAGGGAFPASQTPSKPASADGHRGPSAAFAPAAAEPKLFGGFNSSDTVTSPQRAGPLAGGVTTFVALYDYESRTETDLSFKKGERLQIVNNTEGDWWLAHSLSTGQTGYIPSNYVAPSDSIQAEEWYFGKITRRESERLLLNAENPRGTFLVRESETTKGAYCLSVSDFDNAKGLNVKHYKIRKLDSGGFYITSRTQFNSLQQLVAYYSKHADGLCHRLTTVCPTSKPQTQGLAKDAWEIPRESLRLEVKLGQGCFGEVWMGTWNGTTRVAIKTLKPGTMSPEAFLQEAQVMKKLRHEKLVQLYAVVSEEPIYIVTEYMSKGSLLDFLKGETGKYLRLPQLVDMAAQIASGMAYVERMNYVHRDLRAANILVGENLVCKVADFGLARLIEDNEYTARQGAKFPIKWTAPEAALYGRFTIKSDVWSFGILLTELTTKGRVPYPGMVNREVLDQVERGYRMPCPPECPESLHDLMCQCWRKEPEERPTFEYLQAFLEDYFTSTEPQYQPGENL
Procedure: Compounds were assayed for Src kinase inhibitory activity using N-terminal His-tagged human Src (Upstate USA Inc, 706 Forest Street, Charlottesville, Va.). Serial dilutions of compound were assayed in a final reaction volume of 25 μL by incubating a solution of the above Src kinase (5-10 mU), 8 mM MOPS (3-(N-morpholino) propanesulfonic acid) pH 7.0, 0.2 mM EDTA (ethylenediamine tetracetic acid), 250 μM amino acid sequence KVEKIGEGTYGVVYK (Upstate USA Inc, 706 Forest Street, Charlottesville, Va.), and 10 mM magnesium acetate and [γ-^33P-ATP] (specific activity of about 500 cpm/μmol, concentration as required). The reaction was initiated by the addition of the magnesium acetate and [γ-^33P-ATP] mixture. After incubation for 40 minutes at room temperature, the reaction was stopped by the addition of 5 μL of a 3% phosphoric acid solution. A 10 μL aliquote of the reaction was then spotted onto a P30 filtermat (PerkinElmer, Wellesley, Mass.) and washed three times for five minutes in 75 mM phosphoric acid and once in methanol prior to drying and scintillation counting. Inhibition of Src activity was determined by comparison to assays that contained no inhibitor.

HCT116 cells = assay: Whole cell cytotoxicity assay, Sulforhodamine B; format: cell-based; conditions: Homo sapiens, HCT-116, HCT116, 96 hours incubation, SRB; for IC50: read-out: IC50 values in this assay (HCT116 cell growth); for GI50: read-out: GI50 HCT116 cell growth
Procedure: Human tumor-derived cell lines, HCT116 or MCF7 (ATCC) were plated in a 96 well plate in DMEM containing 10% fetal bovine serum and 2 mM L-glutamine at a density of 500 HCT116 cells or 1,000 MCF7 cells per well and incubated at 37° C., 5% CO2, for 24 hours prior to the addition of experimental compounds. Compounds were added using the dilution series indicated to duplicate plates and the cells were incubated in media plus compound for 96 hours. An additional plate was fixed in 10% TCA at the time of the addition of compound to provide a measurement of the cell population at time zero, the time of drug addition. Following the 96 hour incubation, cells were fixed in situ by gently aspirating off the culture media and then adding 50 ul of ice cold 10% TCA per well and incubation at 4° C. for 60 minutes. The plates were washed with tap water five times and allowed to air dry for 5 minute. 50 ul of a 0.4% (w/v) Sulforhodamine B solution in 1% (v/v) acetic acid was added per well and the cells were incubated for 30 minutes at room temperature. Following staining, plates were washed four times with 1% acetic acid to remove any unbound dye and then allowed to air dry for 5 minutes. The stain was solubilized with 100 ul of 10 mM Tris pH 10.5 per well and placed on an orbital rotator for 5 minutes. The absorbance was read at 570 nm. Percentage growth was calculated using the absorbance readings from the time zero plate (Tz) and the dilution series plate […] which included a column of cells grown in media without compound as a control (C) using the formulas:
[(Ti−Tz)/(C−Tz)]×100 for concentrations for which Ti>/=Tz
[(Ti−Tz)/Tz]×100 for concentrations for which Ti<Tz.
Three dose response parameters were calculated for each experimental agent. Growth inhibition of 50% (GI50) was calculated from [(Ti−Tz)/(C−Tz)]×100=50, which was the drug concentration resulting in a 50% reduction in the net protein increase (as measured by SRB staining) in control cells during the drug incubation. The drug concentration resulting in total growth inhibition (TGI) was calculated from Ti=Tz. The LC50 (concentration of drug resulting in a 50% reduction in the measured protein at the end of the drug treatment as compared to that at the beginning) indicating a net loss of cells following treatment ws calculated from [(Ti−Tz)/Tz]×100=−50. Values are calculated for each of these three parameters if the level of activity was reached; however, if the effect was not reached or was exceeded, the value for that parameter is expressed as greater or less than the maximum or minimum concentration tested.

[3] = molecular target: T3, N-terminal His6-tagged recombinant human KDR, residues 790-end (Homo sapiens, UniProt P35968); assay: KDR kinase inhibition assay (33P-ATP filter assay); format: biochemical
T3 construct: recombinant human KDR, residues 790-end; His6 (N); purchased Upstate USA Inc, 706 Forest Street, Charlottesville, Va
T3 sequence (P35968 790-1356 limits assumed): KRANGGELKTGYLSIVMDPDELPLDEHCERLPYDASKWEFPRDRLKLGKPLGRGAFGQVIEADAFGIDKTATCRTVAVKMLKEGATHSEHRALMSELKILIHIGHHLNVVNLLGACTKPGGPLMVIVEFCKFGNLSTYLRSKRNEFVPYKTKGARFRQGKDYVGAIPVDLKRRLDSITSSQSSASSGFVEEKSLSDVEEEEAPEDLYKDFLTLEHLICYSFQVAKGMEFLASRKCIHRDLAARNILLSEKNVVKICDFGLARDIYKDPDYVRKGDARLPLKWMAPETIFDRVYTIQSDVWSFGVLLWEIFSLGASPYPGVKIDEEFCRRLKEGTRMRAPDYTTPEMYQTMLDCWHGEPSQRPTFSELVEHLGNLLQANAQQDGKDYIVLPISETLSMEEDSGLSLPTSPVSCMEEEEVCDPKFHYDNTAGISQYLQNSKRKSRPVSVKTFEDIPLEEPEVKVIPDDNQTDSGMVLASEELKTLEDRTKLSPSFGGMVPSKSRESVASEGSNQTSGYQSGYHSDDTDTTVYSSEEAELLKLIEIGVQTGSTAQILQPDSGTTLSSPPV
Procedure: as §1, with “KDR” for “Flt3”, “His6-tagged” for “GST-tagged”, “KDR,” for “Flt3,”, “790-end” for “564-end”, “0.33 mg/mL myelin basic protein” for “50 μM amino acid sequence EAIYAAPFAKKK”

[4] = group with IC50 greater than 100 nM

Structure (SMILES)	IC50 [1] [µM]	IC50 [2, 4] [µM]	IC50 ([3]; 40 minutes at room temperature) [µM]	IC50 [3, 4] [µM]	IC50 ([2]; 40 minutes at room temperature) [µM]	IC50 (HCT116 cells) [µM]	GI50 (HCT116 cells) [µM]
Cc1cc(Nc2cc(N(C)CCN(C)C)nc(-c3ccccc3C(F)(F)F)n2)n[nH]1 [Compound 114, N^4-(2-(dimethylamino)ethyl)-N^4-methyl-N^6-(5-methyl-1H-pyrazol-3-yl)-2-(2-(trifluoromethyl)phenyl)pyrimidine-4,6-diamine]	≤ 0.1	≤ 1	≤ 0.1	–	–	1 to 10	–
COc1ccccc1-c1nc(Nc2cc(C)[nH]n2)cc(N2CCN(C)CC2)n1 [Compound 43, 2-(2-methoxyphenyl)-N-(5-methyl-1H-pyrazol-3-yl)-6-(4-methylpiperazin-1-yl)pyrimidin-4-amine]	≤ 0.1	≤ 1	–	≤ 1	–	1 to 10	–
Cc1cc(Nc2cc(N(C)CCN(C)C)nc(-c3cccc4ccccc34)n2)n[nH]1 [Example 141, N^4-(2-(dimethylamino)ethyl)-N^4-methyl-N^6-(5-methyl-1H-pyrazol-3-yl)-2-(naphthalen-1-yl)pyrimidine-4,6-diamine]	≤ 0.1	≤ 1	–	≤ 1	–	–	≤ 1
Cc1cc(Nc2cc(N(C)CCN(C)C)nc(-c3ccccc3Cl)n2)n[nH]1 [Compound 50, 2-(2-chlorophenyl)-N4-(2-(dimethylamino)ethyl)-N4-methyl-N6-(5-methyl-1H-pyrazol-3-yl)pyrimidine-4,6-diamine]	≤ 0.1	≤ 1	≤ 0.1	–	≤ 0.1	1 to 10	≤ 1
Cc1cc(Nc2cc(NC3CCOCC3)nc(-c3ccc4ccccc4c3)n2)n[nH]1 [Example 128, N^4-(5-methyl-1H-pyrazol-3-yl)-2-(naphthalen-2-yl)-N^6-(tetrahydro-2H-pyran-4-yl)pyrimidine-4,6-diamine]	≤ 0.1	–	≤ 0.1	–	≤ 0.1	1 to 10	–

The next lines start with results.

IC50 [1] [µM]	IC50 [2, 4] [µM]	IC50 ([3]; 40 minutes at room temperature) [µM]	IC50 [3, 4] [µM]	IC50 ([2]; 40 minutes at room temperature) [µM]	Structure (SMILES)	IC50 (HCT116 cells) [µM]	GI50 (HCT116 cells) [µM]
≤ 0.1	≤ 1	–	≤ 1	–	Cc1cc(Nc2cc(N(C)CCN(C)C)nc(-c3cccc(C)c3C)n2)n[nH]1 [Example 182, N^4-(2-(dimethylamino)ethyl)-2-(2,3-dimethylphenyl)-N^4-methyl-N^6-(5-methyl-1H-pyrazol-3-yl)pyrimidine-4,6-diamine]	1 to 10	–
≤ 0.1	≤ 1	–	≤ 1	–	Cc1cc(Nc2cc(N3CCN(C)CC3)nc(-c3ccc(F)cc3F)n2)n[nH]1 [Example 189, 2-(2,4-difluorophenyl)-N-(5-methyl-1H-pyrazol-3-yl)-6-(4-methylpiperazin-1-yl)pyrimidin-4-amine]	1 to 10	–
≤ 0.1	≤ 1	≤ 0.1	–	–	Cc1cc(Nc2cc(N(C)CCN(C)C)nc(-c3cc(F)ccc3F)n2)n[nH]1 [Example 183, 2-(2,5-difluorophenyl)-N^4-(2-(dimethylamino)ethyl)-N^4-methyl-N^6-(5-methyl-1H-pyrazol-3-yl)pyrimidine-4,6-diamine]	1 to 10	–
